Values quoted from earlier work as cited in patent US20060008512A1, “Composition and methods for improved animal performance” (priority 2004, published 2006).
Where two headings read alike, the source gives them in different places.

Key:
[1] = test system: suckling rat pups; conditions: 0.1% solution in mother's drinking water, birth to 24 days, cited from earlier work
[2] = test system: male rats; conditions: treated from birth to day 25, cited from earlier work
[3] = test system: male Peterson broiler breeder chicks; conditions: 0.1% dietary, cited from earlier work
[4] = test system: growing cockerel and pullet chickens; conditions: 10 mg/kg dietary thyroid hormone; cited from earlier work
[5] = test system: broiler chickens; conditions: finishing-phase T3 administration alone; cited from earlier work
[6] = test system: pigs; conditions: 1,000 mg betaine/kg diet; cited from earlier work
[7] = test system: dogs; conditions: approximately 5 mg biotin/10 kg body weight for 3 to 5 weeks; cited from earlier work
[8] = test system: laying hens; conditions: 20 to 40 mg corticosterone/kg diet; cited from earlier work
[9] = test system: porcine thyroid follicles; conditions: cited from earlier work
[10] = test system: female Sprague-Dawley rats; conditions: fifteen days, cited from earlier work; for Concentration of reverse T3: control 71.7; for Concentration of T3: control 670
[11] = test system: humans; conditions: daily doses of 100 to 200 mg iodide (from potassium iodide) per person; cited from earlier work
[12] = test system: isolated porcine thyroid follicles; conditions: 10 microM of iodide, comparison value; cited from earlier work
[13] = test system: White Leghorn hens; conditions: single i.m. injection releasing 60 mcg/kg body weight per day for 30 days, cited from earlier work
[14] = test system: pigs; conditions: 5 or 8 mg iodide/kg feed for 3 months; cited from earlier work
[15] = serum adjusted to 10 mM sodium salicylate; cited from earlier work
[16] = test system: male rats; conditions: 200 mg/kg body weight i.v.; blood 30-240 minutes later; cited from earlier work
[17] = test system: neonatal male rats; conditions: fed from birth to 24 days of age, cited from earlier work
[18] = test system: young male Nile tilapia fish; conditions: 100 or 150 mg thiouracil/kg diet for 40 days; by 98 days; cited from earlier work
[19] = test system: cockerels; conditions: fed from 1 day of age; by the 14th week; cited from earlier work
[20] = test system: broiler breeder hen; conditions: 50 mg/kg feed; days 11 and 12; cited from earlier work

For CCCc1cc(=O)[nH]c(=S)[nH]1 [6-propyl-2-thiouracil], the “Decline of average Leydig cell volume” value ([1]; at 180 days) is given as “about 20%”, the “Increase in number of Leydig cells per testis” value ([1]; at 180 days) is given as 69% and the “Decline in number of hCG-binding sites (LH receptors)” value [1] is given as 50%. The “Reduction of LH-stimulated testosterone production in Leydig cells” value [1] was 55%, the “Increase of testis weight compared to controls” value (“Increase of testis weight” below) ([2]; at 90 days) was 40% and the “Increase of testis weight” value ([2]; at 135 days) was 60%. The “Increase of testis weight” value ([2]; at 160 days) was 80%, the “Increase in testis weight” value ([3]; 8 to 14 or 10 to 16 weeks of age) was “about 35%” and the Testis weight ([3]; 8 to 14 weeks of age, control 20.0 g) was 27.7 g. The Testis weight ([3]; 10 to 16 weeks of age, control 20.0 g) was 27.7 g, the “Increase in mean testis weight at 28 weeks” value ([3]; fed from 6 to 12 weeks of age) was 96% and the “Mean testis weight at 28 weeks” value ([3]; fed from 6 to 12 weeks of age, control 20.0 g) was 39.3 g.

In the case of N[C@@H](Cc1cc(I)c(Oc2ccc(O)c(I)c2)c(I)c1)C(=O)O [T3, 3,5,3′-triiodo-L-thyronine], the “Reduction in body weight gain compared to controls” value [4] is given as 55.24% and the “Reduction in body fat” value [5] is given as 17-25%.

In the case of C[N+](C)(C)CC(=O)O [betaine], the “Decrease in feed conversion ratio” value [6] is given as 7.93% and the “Increase in average daily gain” value [6] is given as 13.20%.

For O=C(O)CCCC[C@@H]1SC[C@@H]2NC(=O)N[C@@H]21 [biotin], the Cases cured [7] is listed as 60%.

For C[C@]12C[C@H](O)[C@H]3[C@@H](CCC4=CC(=O)CC[C@@]43C)[C@@H]1CC[C@@H]2C(=O)CO [corticosterone], the “Laying hens with cessation of egg production” value [8] is given as 98%.

For CCCCC/C=C\C/C=C\C/C=C\CC(I)C1CCCC(=O)O1 (stereo not drawn) [delta-iodolactone], the “Dose lower than iodide for comparable apoptosis” value ([9]; 0.05 to 0.5 microM delta-iodolactone) is listed as “about 40 fold”.

In the case of Cc1cc2c(C(C)C)c(O)c(O)c(C=O)c2c(O)c1-c1c(C)cc2c(C(C)C)c(O)c(O)c(C=O)c2c1O [gossypol acetic acid], the “Concentration of reverse T3” value ([10]; 5 mg/kg/day) is given as 0.0372 ng/mL, the “Concentration of T3” value ([10]; 5 mg/kg/day) is given as 0.43 ng/mL and the “Concentration of reverse T3” value ([10]; 10 mg/kg/day) is given as 0.0242 ng/mL. For the same molecule, the “Concentration of T3” value ([10]; 10 mg/kg/day) was 0.359 ng/mL.

For I [iodide], the “Protection from radioactive iodide” value [11] is given as “over 97%”, the Rate of apoptosis ([9]; 2 and 20 microM iodide) is given as 4-6% and the “Inhibitory effect of iodide on thyroid follicle proliferation” value [12] is given as 84±2%.

In the case of CCNC(=O)[C@@H]1CCCN1C(=O)[C@H](CCCNC(=N)N)NC(=O)[C@H](CC(C)C)NC(=O)[C@@H](CC(C)C)NC(=O)[C@H](Cc1ccc(O)cc1)NC(=O)[C@H](CO)NC(=O)[C@H](Cc1c[nH]c2ccccc12)NC(=O)[C@H](Cc1c[nH]cn1)NC(=O)[C@@H]1CCC(=O)N1 [leuprolide acetate], the Body weight [13] is listed as “no body weight loss” and the Egg production ([13]; second week) is listed as 3.5%.

For [I-].[K+] [potassium iodide], the “Increase of iodine content in adipose tissue” value [14] is given as 213%, the “Increase of iodine content in fresh muscle” value [14] is given as 45% and the “Increase of iodine content in heart” value [14] is given as 124%. The “Increase of iodine content in kidneys” value [14] was 127% and the “Increase of iodine content in liver” value [14] was 207%.

For O=C([O-])c1ccccc1O.[Na+] [sodium salicylate], the “Rise of free dialyzable fraction of T4 in vitro” value [15] is given as 125%, the “Decrease in T3” value [16] is given as 60% and the “Decrease in plasma T4 level” value [16] is given as 20%. For the same molecule, the “Increase in reverse T3” value [16] was 20%.

In the case of O=c1cc[nH]c(=S)[nH]1 [thiouracil], the “Increase in testis size” value ([17]; at 100 days) is given as 68%, the “Time for serum T4 and T3 to return to control levels after removal” value [17] is given as no more than 15 days and the “Testis weight, gonadosomatic index, Sertoli, germ and Leydig cell numbers higher than control” value [18] is given as “approximately 100%”. For the same molecule, the “Weights of testes relative to controls” value [19] was “about 10 times”.

In the case of Nicarbazin, the Hatchability [20] is listed as 31%.
